The numbers were not newly measured in patent US20220323356A1, “METAL (HYDR)OXIDE COMPOSITE COMPRISING POORLY SOLUBLE DRUG, METHOD FOR PREPARING SAME, AND PHARMACEUTICAL COMPOSITION COMPRISING SAME” (priority 2020, published 2022), which cites them from elsewhere.

Each structure is given as a SMILES string. *1 amine or outer side, *2 acyl side, *3 side chain or, on linkers, in order; H or OH if unused. Where a SMILES comes first, the peptide text is derived from it. Bridges are numbered along the chain shown (N, C = ends). [ ]: non-standard residue; d: D form. The star is where a group is joined. pTerphenylCO(4''-OnC5H11) = CCCCCOc1ccc(-c2ccc(-c3ccc(C(=O)*)cc3)cc2)cc1; Orn(4R-OH,5R-OH) = O=C([C@H](C[C@@H](O)[C@@H](O)N[*:3])N[*:1])[*:2]; hTyr(3S-OH,4S-OH) = N[C@H](C(=O)O)[C@H](O)[C@@H](O)c1ccc(O)cc1; Pro(3S-OH,4S-Me) = C[C@H]1CN[C@H](C(=O)O)[C@H]1O; Hyp = O=C(O)[C@@H]1C[C@@H](O)CN1

The conditions of the data set: in vivo; cited from earlier work.
Consider `C[C@]12CC[C@H](O)CC1=CC[C@@H]1[C@@H]2CC[C@]2(C)C(c3cccnc3)=CC[C@@H]12` [Abiraterone], for which the “bioavailability (%)” value is on record as less than 10%.
On to `O=C1O[C@H]([C@@H](O)CO)C(O)=C1O` [Ascorbic acid], for which the “bioavailability (%)” value is on record as 69%.
As to `CNC(=O)c1ccccc1Sc1ccc2c(/C=C/c3ccccn3)n[nH]c2c1` [Axitinib], the “bioavailability (%)” value is listed as 58%.
As for `COc1cc(Nc2c(C#N)cnc3cc(OCCCN4CCN(C)CC4)c(OC)cc23)c(Cl)cc1Cl` [Bosutinib], the “bioavailability (%)” value is recorded as 34%.
For `COc1cc2nccc(Oc3ccc(NC(=O)C4(C(=O)Nc5ccc(F)cc5)CC4)cc3)c2cc1OC` [Cabozantinib], the “bioavailability (%)” value was 74-93%.
With `O=c1[nH]cc(F)c(=O)[nH]1` [Fluorouracil], the “bioavailability (%)” value is 28%.
On to `CC(=O)[C@]1(O)Cc2c(O)c3c(c(O)c2[C@@H](O[C@H]2C[C@H](N)[C@H](O)[C@H](C)O2)C1)C(=O)c1ccccc1C3=O` [Idarubicin], for which the “bioavailability (%)” value is 20-25%.
Take `CC(=O)O[C@H]1C(=O)[C@@]2(C)[C@H]([C@H](OC(=O)c3ccccc3)[C@]3(O)C[C@H](OC(=O)[C@H](O)[C@@H](NC(=O)c4ccccc4)c4ccccc4)C(C)=C1C3(C)C)[C@]1(OC(C)=O)CO[C@@H]1C[C@@H]2O` [Paclitaxel]: the “bioavailability (%)” value is 30%.
Turning to `CCN(CC)CCOc1ccc2c(c1)C(=O)c1cc(OCCN(CC)CC)ccc1-2` [Tilorone], the “bioavailability (%)” value is 60%.
Regarding `CC[C@@]1(O)C(=O)OCc2c1cc1n(c2=O)Cc2cc3c(CN(C)C)c(O)ccc3nc2-1` [Topotecan], the “bioavailability (%)” value is 30-44%.
On to `CCN1CCN(Cc2ccc(Nc3ncc(F)c(-c4cc(F)c5nc(C)n(C(C)C)c5c4)n3)nc2)CC1` [abemaciclib(USAN), abemaciclib], for which the “bioavailability (%)” value is listed as 45%.
As to `CC(=O)N[C@@H](CS)C(=O)O` [acetylcysteine], the “bioavailability (%)” value is 10%.
`Oc1ncnc2[nH]ncc12` [allopurinol]: the “bioavailability (%)” value is reported as 67%.
As to `CCN(CC)Cc1cc(Nc2ccnc3cc(Cl)ccc23)ccc1O` [amodiaquine], the “bioavailability (%)” value was 22%.
On to `CCCCCOc1ccc(-c2ccc(-c3ccc(C(=O)N[C@H]4C[C@@H](O)[C@@H](O)NC(=O)[C@@H]5[C@@H](O)[C@@H](C)CN5C(=O)[C@H]([C@@H](C)O)NC(=O)[C@H]([C@H](O)[C@@H](O)c5ccc(O)cc5)NC(=O)[C@@H]5C[C@@H](O)CN5C(=O)[C@H]([C@@H](C)O)NC4=O)cc3)cc2)cc1` [anidulafungin(LY303366), anidulafungin] ({pTerphenylCO(4''-OnC5H11)}-[Orn(4R-OH,5R-OH)]T[Hyp][hTyr(3S-OH,4S-OH)]T[Pro(3S-OH,4S-Me)]; lactam 1-C), for which the “bioavailability (%)” value is 2~7%.
`COC(=O)N[C@H](C(=O)N[C@@H](Cc1ccccc1)[C@@H](O)CN(Cc1ccc(-c2ccccn2)cc1)NC(=O)[C@@H](NC(=O)OC)C(C)(C)C)C(C)(C)C` [atazanavir]: the “bioavailability (%)” value is reported as 60%.
On to `Cc1c(-c2ccc(O)cc2)n(Cc2ccc(OCCN3CCCCCC3)cc2)c2ccc(O)cc12` [bazedoxifene], for which the “bioavailability (%)” value is 6%.
On to `COc1cc2c3cc1Oc1c(OC)c(OC)cc4c1[C@@H](Cc1ccc(O)c(c1)Oc1ccc(cc1)C[C@@H]3N(C)CC2)N(C)CC4` [berbamine], for which the “bioavailability (%)” value is recorded as 30%.
As to `N.N.O=C([O-])C1(C(=O)[O-])CCC1.[Pt+2]` [carboplatin], the “bioavailability (%)” value is given as 1.16%.
Regarding `COc1ccc2cc1Oc1ccc(cc1)C[C@H]1c3c(cc4c(c3Oc3cc5c(cc3OC)CCN(C)[C@@H]5C2)OCO4)CCN1C` [cepharanthine], the “bioavailability (%)” value is recorded as 5%.
For the molecule `Cc1cc(Nc2ncc(Cl)c(Nc3ccccc3S(=O)(=O)C(C)C)n2)c(OC(C)C)cc1C1CCNCC1` [ceritinib(LDK378), ceritinib], the “bioavailability (%)” value is reported as 50%.
In the case of `CCN(CC)CCCC(C)Nc1ccnc2cc(Cl)ccc12` (stereo not shown) [chloroquine], the “bioavailability (%)” value was 50~100%.
On to `CC(C)C(=O)OCC(=O)[C@@]12O[C@H](C3CCCCC3)O[C@@H]1C[C@H]1[C@@H]3CCC4=CC(=O)C=C[C@]4(C)[C@H]3[C@@H](O)C[C@@]12C` [ciclesonide], for which the “bioavailability (%)” value is less than 1%.
With `CCN(CC)CCOc1ccc(C(=C(Cl)c2ccccc2)c2ccccc2)cc1` [clomiphene], the “bioavailability (%)” value was 90%.
`CC(C)(C)c1nc(-c2cccc(NS(=O)(=O)c3c(F)cccc3F)c2F)c(-c2ccnc(N)n2)s1` [dabrafenib]: the “bioavailability (%)” value is listed as 95%.
In the case of `C[C@H]1O[C@@H](O[C@H]2[C@@H](O)C[C@H](O[C@H]3[C@@H](O)C[C@H](O[C@H]4CC[C@@]5(C)[C@H](CC[C@@H]6[C@@H]5CC[C@]5(C)[C@@H](C7=CC(=O)OC7)CC[C@]65O)C4)O[C@@H]3C)O[C@@H]2C)C[C@H](O)[C@@H]1O` [digitoxin], the “bioavailability (%)” value is 98%.
For the molecule `C[C@H]1O[C@@H](O[C@H]2[C@@H](O)C[C@H](O[C@H]3[C@@H](O)C[C@H](O[C@H]4CC[C@@]5(C)[C@H](CC[C@@H]6[C@@H]5C[C@@H](O)[C@]5(C)[C@@H](C7=CC(=O)OC7)CC[C@]65O)C4)O[C@@H]3C)O[C@@H]2C)C[C@H](O)[C@@H]1O` [digoxin], the “bioavailability (%)” value is reported as 50~90%.
Turning to `COc1cccc2c1C(=O)c1c(O)c3c(c(O)c1C2=O)C[C@@](O)(C(=O)CO)C[C@@H]3O[C@H]1C[C@H](N)[C@H](O)[C@H](C)O1` [doxorubicin], the “bioavailability (%)” value is reported as 5%.
On to `CC/C(=C(/c1ccc(OCCN(C)C)cc1)c1cccc(O)c1)c1ccccc1` [droloxifene], for which the “bioavailability (%)” value is 2%.
For the molecule `CCCCc1oc2ccc(NS(C)(=O)=O)cc2c1C(=O)c1ccc(OCCCN(CCCC)CCCC)cc1` [dronedarone], the “bioavailability (%)” value is given as 15%.
`CC1=NN(c2ccc(C)c(C)c2)C(=O)/C1=N\Nc1cccc(-c2cccc(C(=O)O)c2)c1O` [eltrombopag]: the “bioavailability (%)” value is 52%.
On to `C#Cc1cccc(Nc2ncnc3cc(OCCOC)c(OCCOC)cc23)c1` [erlotinib], for which the “bioavailability (%)” value is listed as 59%.
Regarding `CO[C@H]1C[C@@H]2CC[C@@H](C)[C@@](O)(O2)C(=O)C(=O)N2CCCC[C@H]2C(=O)O[C@H]([C@H](C)C[C@@H]2CC[C@@H](OCCO)[C@H](OC)C2)CC(=O)[C@H](C)/C=C(\C)[C@@H](O)[C@@H](OC)C(=O)[C@H](C)C[C@H](C)/C=C/C=C/C=C/1C` [everolimus], the “bioavailability (%)” value was 5%.
Turning to `NC(=O)c1nc(F)c[nH]c1=O` [favipiravir], the “bioavailability (%)” value is recorded as 98%.
For the molecule `CCc1nc(C(N)=O)c(Nc2ccc(N3CCC(N4CCN(C)CC4)CC3)c(OC)c2)nc1NC1CCOCC1` [gilteritinib], the “bioavailability (%)” value is recorded as 60%.
Regarding `Oc1c(Cl)cc(Cl)c(Cl)c1Cc1c(O)c(Cl)cc(Cl)c1Cl` [hexachlorophene], the “bioavailability (%)” value is 4~10%.
For the molecule `CCN(CCO)CCCC(C)Nc1ccnc2cc(Cl)ccc12` (stereo not shown) [hydroxychloroquine], the “bioavailability (%)” value was 70%.
With `CC(=O)[C@@]1(O)CC[C@H]2[C@@H]3CCC4=CC(=O)CC[C@]4(C)[C@H]3CC[C@@]21C` [hydroxyprogesterone], the “bioavailability (%)” value is reported as 3%.
Regarding `COC1=C(OC)C(=O)C(CCCCCCCCCCO)=C(C)C1=O` [idebenone], the “bioavailability (%)” value was less than 1%.
`CC(C)(C)c1cc(C(C)(C)C)c(NC(=O)c2c[nH]c3ccccc3c2=O)cc1O` [ivacaftor]: the “bioavailability (%)” value is listed as 20~30%.
